Results reported in US20190345138A1, “HETEROCYCLIC AMIDES AS KINASE INHIBITORS” (GlaxoSmithKline Intellectual Property Development Limited, priority 2016, published 2019).
Several values for one entry are separate records, joined by “and”; a condition that tells them apart may be missing. Identical values can stand only once.

Key:
RIP1 kinase = target: T1, RIP1 kinase (Homo sapiens, UniProt Q13546); assay: fluorescent polarization based binding assay; conditions: mean of a minimum of 2 experiments
T1 sequence (Q13546 1-375 limits assumed): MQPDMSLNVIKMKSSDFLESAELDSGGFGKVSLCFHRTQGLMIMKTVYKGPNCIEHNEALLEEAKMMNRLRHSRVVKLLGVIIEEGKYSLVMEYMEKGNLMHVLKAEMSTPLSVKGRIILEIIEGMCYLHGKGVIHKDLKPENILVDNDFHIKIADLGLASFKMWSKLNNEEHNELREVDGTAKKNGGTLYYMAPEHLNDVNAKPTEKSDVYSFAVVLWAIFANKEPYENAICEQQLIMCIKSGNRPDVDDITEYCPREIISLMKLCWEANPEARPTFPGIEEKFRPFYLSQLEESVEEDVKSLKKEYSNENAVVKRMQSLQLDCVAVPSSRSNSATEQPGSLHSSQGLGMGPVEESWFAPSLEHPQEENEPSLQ
Description: A fluorescent polarization based binding assay was used to assess the activity of the compounds of this invention, the details of which are disclosed in International Patent Appln. No. PCT/IB2014/059004, now, International Patent Appln. Pub.

[1] = tested on: human monocytic leukemia U937 cells; assay: necroptosis assay in U937 cells; assay type: cell-based; conditions: Homo sapiens, U-937, U937 cells; viability by cellular ATP (Cell Titer-Glo); read-out: pIC50, inhibited necrosis in U937 cells (converted)
Method in brief: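 Necroptosis was induced in human U937 or mouse L929 cells, and viability was quantified as cellular ATP with Cell Titer-Glo. Data are means±standard deviation.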

| SMILES | IC50 (RIP1 kinase) | IC50 [1] [nM] |
| --- | --- | --- |
| O=C(C1CCN(c2nccc(=O)[nH]2)CC1)N1N=CC[C@H]1c1ccccc1 [Example 19, (S)-2-(4-(5-phenyl-4,5-dihydro-1H-pyrazole-1-carbonyl)piperidin-1-yl)pyrimidin-4(3H)-one] | 1 to 31.6 nM | 1 to 100 |
| O=C(C1CCN(c2ncc3[nH]cnc3n2)CC1)N1N=CC[C@H]1c1ccccc1 [Example 9, (S)-(1-(7H-purin-2-yl)piperidin-4-yl)(5-phenyl-4,5-dihydro-1H-pyrazol-1-yl)methanone] | 1 to 31.6 nM | 1 to 100 |
| O=C(C1CCN(c2cc(C(F)(F)F)ncn2)CC1)N1N=CC[C@H]1c1ccccc1 [Example 51, (S)-(5-phenyl-4,5-dihydro-1H-pyrazol-1-yl)(1-(6-(trifluoromethyl)pyrimidin-4-yl)piperidin-4-yl)methanone] | 1 to 31.6 nM | 1 to 100 |
| CC(=O)N1CCC(NC(=O)c2ccnc(N3CCC(C(=O)N4N=CC[C@H]4c4ccccc4)CC3)n2)CC1 [Example 144, (S)-N-(1-acetylpiperidin-4-yl)-2-(4-(5-phenyl-4,5-dihydro-1H-pyrazole-1-carbonyl)piperidin-1-yl)pyrimidine-4-carboxamide] | 1 to 31.6 nM | 1 to 100 |
| O=C(C1CCN(c2ccc(C(F)(F)F)nn2)CC1)N1N=CC[C@H]1c1ccccc1 [Example 26, (S)-(5-phenyl-4,5-dihydro-1H-pyrazol-1-yl)(1-(6-(trifluoromethyl)pyridazin-3-yl)piperidin-4-yl)methanone] | 1 to 31.6 nM | 1 to 100 |
| Nc1nccc(N2CCC(C(=O)N3N=CC[C@H]3c3ccccc3)CC2)n1 [Example 11, (S)-(1-(2-aminopyrimidin-4-yl)piperidin-4-yl)(5-phenyl-4,5-dihydro-1H-pyrazol-1-yl)methanone] | 1 to 31.6 nM | 1 to 100 |
| CSc1cc(N2CCC(C(=O)N3N=CC[C@H]3c3ccccc3)CC2)ncn1 [Example 59, (S)-(1-(6-(methylthio)pyrimidin-4-yl)piperidin-4-yl)(5-phenyl-4,5-dihydro-1H-pyrazol-1-yl)methanone] | 1 to 31.6 nM and 1 to 10 nM | 1 to 100 |
| O=C(C1CCN(c2ncc3[nH]cnc3n2)CC1)N1N=CC[C@H]1c1cc(F)cc(F)c1 [Example 139, (S)-(1-(7H-purin-2-yl)piperidin-4-yl)(5-(3,5-difluorophenyl)-4,5-dihydro-1H-pyrazol-1-yl)methanone] | 1 to 31.6 nM | 1 to 100 |
| O=C(C1CCN(c2ccn3nccc3n2)CC1)N1N=CC[C@H]1c1cncc(F)c1 [Example 116, (S)-(5-(5-fluoropyridin-3-yl)-4,5-dihydro-1H-pyrazol-1-yl)(1-(pyrazolo[1,5-a]pyrimidin-5-yl)piperidin-4-yl)methanone] | 1 to 31.6 nM | 1 to 100 |
| COc1cnc(N2CCC(C(=O)N3N=CC[C@H]3c3cc(F)ccc3F)CC2)nc1 [Example 101, (S)-(5-(2,5-difluorophenyl)-4,5-dihydro-1H-pyrazol-1-yl)(1-(5-methoxypyrimidin-2-yl)piperidin-4-yl)methanone] | 1 to 31.6 nM and 1 to 10 nM | 1 to 100 |
| CSc1nc(N)cc(N2CCC(C(=O)N3N=CC[C@H]3c3ccccc3)CC2)n1 [Example 60, (S)-(1-(6-amino-2-(methylthio)pyrimidin-4-yl)piperidin-4-yl)(5-phenyl-4,5-dihydro-1H-pyrazol-1-yl)methanone] | 1 to 31.6 nM | 1 to 100 |
| Cc1nc(N)cc(N2CCC(C(=O)N3N=CC[C@H]3c3ccccc3)CC2)n1 [Example 33, (S)-(1-(6-amino-2-methylpyrimidin-4-yl)piperidin-4-yl)(5-phenyl-4,5-dihydro-1H-pyrazol-1-yl)methanone] | 1 to 31.6 nM | 1 to 100 |
| CCOc1ccnc(N2CCC(C(=O)N3N=CC[C@H]3c3ccccc3)CC2)n1 [Example 58, (S)-(1-(4-ethoxypyrimidin-2-yl)piperidin-4-yl)(5-phenyl-4,5-dihydro-1H-pyrazol-1-yl)methanone] | 1 to 31.6 nM and 1 to 10 nM | 1 to 100 |
| O=C(C1CCN(c2ccnc(C(F)(F)F)n2)CC1)N1N=CC[C@H]1c1ccccc1 [Example 46, (S)-(5-phenyl-4,5-dihydro-1H-pyrazol-1-yl)(1-(2-(trifluoromethyl)pyrimidin-4-yl)piperidin-4-yl)methanone] | 1 to 31.6 nM and 1 to 10 nM | 1 to 100 |
| N#Cc1cnc(N2CCC(C(=O)N3N=CC[C@H]3c3ccccc3)CC2)cn1 [Example 40, (S)-5-(4-(5-phenyl-4,5-dihydro-1H-pyrazole-1-carbonyl)piperidin-1-yl)pyrazine-2-carbonitrile] | 1 to 31.6 nM and 1 to 10 nM | 1 to 100 |
| NC(=O)Cc1nc(N2CCC(C(=O)N3N=CC[C@H]3c3ccccc3)CC2)ncc1F [Example 169, (S)-2-(5-fluoro-2-(4-(5-phenyl-4,5-dihydro-1H-pyrazole-1-carbonyl)piperidin-1-yl)pyrimidin-4-yl)acetamide] | 1 to 31.6 nM and 1 to 10 nM | 1 to 100 |
| CNc1nccc(N2CCC(C(=O)N3N=CC[C@H]3c3ccccc3)CC2)n1 [Example 15, (S)-(1-(2-(methylamino)pyrimidin-4-yl)piperidin-4-yl)(5-phenyl-4,5-dihydro-1H-pyrazol-1-yl)methanone] | 1 to 31.6 nM and 1 to 10 nM | 1 to 100 |
| N#Cc1cnc(N2CCC(C(=O)N3N=CC[C@H]3c3ccccc3)CC2)o1 [Example 138, (S)-2-(4-(5-phenyl-4,5-dihydro-1H-pyrazole-1-carbonyl)piperidin-1-yl)oxazole-5-carbonitrile] | 1 to 31.6 nM and 1 to 10 nM | 1 to 100 |
| CCOC(=O)c1coc(N2CCC(C(=O)N3N=CC[C@H]3c3cc(F)cc(F)c3)CC2)n1 [Example 106, (S)-ethyl 2-(4-(5-(3,5-difluorophenyl)-4,5-dihydro-1H-pyrazole-1-carbonyl)piperidin-1-yl)oxazole-4-carboxylate] | 1 to 31.6 nM and 1 to 10 nM | 1 to 100 |

More lines, main results first:

| IC50 (RIP1 kinase) | SMILES | IC50 [1] [nM] |
| --- | --- | --- |
| 1 to 31.6 nM and 1 to 10 nM | N#Cc1nccnc1N1CCC(C(=O)N2N=CC[C@H]2c2ccccc2)CC1 [Example 44, (S)-3-(4-(5-phenyl-4,5-dihydro-1H-pyrazole-1-carbonyl)piperidin-1-yl)pyrazine-2-carbonitrile] | 1 to 100 |
| 1 to 31.6 nM and 1 to 10 nM | O=C1NCCC1c1nc(N2CCC(C(=O)N3N=CC[C@H]3c3ccccc3)CC2)ncc1F (stereo partly drawn) [Example 150, 3-(5-fluoro-2-(4-((S)-5-phenyl-4,5-dihydro-1H-pyrazole-1-carbonyl)piperidin-1-yl)pyrimidin-4-yl)pyrrolidin-2-one] | 1 to 100 |
| 1 to 31.6 nM | COc1ccc(N2CCC(C(=O)N3N=CC[C@H]3c3ccccc3)CC2)nn1 [Example 49, (S)-(1-(6-methoxypyridazin-3-yl)piperidin-4-yl)(5-phenyl-4,5-dihydro-1H-pyrazol-1-yl)methanone] | 1 to 100 |
| 1 to 31.6 nM | O=C(O)c1ncnc(N2CCC(C(=O)N3N=CC[C@H]3c3cc(F)cc(F)c3)CC2)c1F [Example 164, (S)-6-(4-(5-(3,5-difluorophenyl)-4,5-dihydro-1H-pyrazole-1-carbonyl)piperidin-1-yl)-5-fluoropyrimidine-4-carboxylic acid] | 1 to 100 |
| 1 to 31.6 nM | NC(=O)c1cncc(N2CCC(C(=O)N3N=CC[C@H]3c3ccccc3)CC2)n1 [Example 31, (S)-6-(4-(5-phenyl-4,5-dihydro-1H-pyrazole-1-carbonyl)piperidin-1-yl)pyrazine-2-carboxamide] | 1 to 100 |
| 1 to 31.6 nM | N#Cc1cccc([C@@H]2CC=NN2C(=O)C2CCN(c3ccnc(C#N)n3)CC2)c1 [Example 74, (S)-4-(4-(5-(3-cyanophenyl)-4,5-dihydro-1H-pyrazole-1-carbonyl)piperidin-1-yl)pyrimidine-2-carbonitrile] | 1 to 100 |
| 1 to 31.6 nM and 1 to 10 nM | COc1ccnc(N2CCC(C(=O)N3N=CC[C@H]3c3cccc(C#N)c3)CC2)n1 [Example 69, (S)-3-(1-(1-(4-methoxypyrimidin-2-yl)piperidine-4-carbonyl)-4,5-dihydro-1H-pyrazol-5-yl)benzonitrile] | 1 to 100 |
| 1 to 31.6 nM and 1 to 10 nM | O=C(C1CCN(c2nccc(C3=NCCN3)n2)CC1)N1N=CC[C@H]1c1ccccc1 [Example 140, (S)-(1-(4-(4,5-dihydro-1H-imidazol-2-yl)pyrimidin-2-yl)piperidin-4-yl)(5-phenyl-4,5-dihydro-1H-pyrazol-1-yl)methanone] | 1 to 100 |
| 1 to 31.6 nM and 1 to 10 nM | NC(=O)c1ncnc(N2CCC(C(=O)N3N=CC[C@H]3c3cc(F)cc(F)c3)CC2)c1F [Example 165, (S)-6-(4-(5-(3,5-difluorophenyl)-4,5-dihydro-1H-pyrazole-1-carbonyl)piperidin-1-yl)-5-fluoropyrimidine-4-carboxamide] | 1 to 100 |
| 1 to 31.6 nM | COc1ccnc(N2CCC(C(=O)N3N=CCC3c3ccccc3)CC2)n1 (racemic) [Example 3, (1-(4-methoxypyrimidin-2-yl)piperidin-4-yl)(5-phenyl-4,5-dihydro-1H-pyrazol-1-yl)methanone] | 1 to 100 |
| 1 to 31.6 nM | N#Cc1cnc(N2CCC(C(=O)N3N=CCC3c3ccccc3)CC2)nc1 (racemic) [Example 2, 2-(4-(5-phenyl-4,5-dihydro-1H-pyrazole-1-carbonyl)piperidin-1-yl)pyrimidine-5-carbonitrile] | 1 to 100 |
